Changes are numbered by the printed parent chain.
Columns and labels:
[1] = test system: EPSPS with TIPS mutations (T103I and P107S, as in GA21); settings: Funke et al. 2009; Yu et al. 2015; cited from earlier work
[2] = biological target: T1, Zea mays EPSPS variant Zm-H6 (868-H6) with D196V (H6-D196V) (Zea mays, UniProt O24566, A1R/A3W/A415G/A71Q/D195V/D401G/E301S/E390G/G101A/I207L/K83R/L97C/T278A/T360S/T440Q/V437R); experiment: Rapid two-rate method for (kcat/KM)*KI, H6-D196V; format: biochemical; settings: [E] 0.07 uM, [Gly] 1000 uM
T1 construct: shuffled variant 868-H6 plus D196V; E. coli BL21(DE3), Ni-NTA purified
T1 sequence (O24566 with tags, fused parts or gaps A1R/A3W/A71Q/K83R/L97C/G101A/D195V/I207L/T278A/E301S/T360S/E390G/D401G/A415G/V437R/T440Q): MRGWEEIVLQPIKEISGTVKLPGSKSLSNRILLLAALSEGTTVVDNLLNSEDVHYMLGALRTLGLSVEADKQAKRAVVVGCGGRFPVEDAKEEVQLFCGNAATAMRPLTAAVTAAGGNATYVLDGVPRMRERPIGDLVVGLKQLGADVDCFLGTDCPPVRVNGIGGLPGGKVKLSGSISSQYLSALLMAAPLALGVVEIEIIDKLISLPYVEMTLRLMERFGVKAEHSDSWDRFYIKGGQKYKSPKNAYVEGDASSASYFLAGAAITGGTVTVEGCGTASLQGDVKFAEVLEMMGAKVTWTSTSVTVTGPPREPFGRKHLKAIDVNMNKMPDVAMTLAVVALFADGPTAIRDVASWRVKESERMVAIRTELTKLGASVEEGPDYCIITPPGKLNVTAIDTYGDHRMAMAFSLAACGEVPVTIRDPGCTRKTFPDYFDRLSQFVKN
From the text: (§1) There are several practical considerations for accurately estimating (kcat/KM)*KI with the rapid method. […] 2) The inhibitor concentration must be adjusted so as to obtain a degree of inhibition that minimally amplifies the error in the term v0-vi in Equation 3. If inhibition is too little, v0-vi will be small, and the error in the multiplier vi×v0/(v0-vi) will be large. […] 3) Substrate concentration should be set at the approximate KM of the parental variant(s), subject to the sensitivity of the assay. High substrate concentration obscures sensitivity to the inhibitor and reduces stringency for capturing improvements in KM. Depending on the necessity for speed, there exists opportunity for customizing enzyme and inhibitor concentrations. […] The rapid method was repeated for those and obtained data that correlated better with data obtained by substrate saturation analysis. For screening purposes however, that correlation step is not necessary. Conditions can be set so that variants with a pre-determined minimal fitness level are accurately quantified.
(§2) In Table 15, parameters above the heavy line for the rapid method were obtained under standard conditions. For variants shown below the heavy line, the rapid analysis was repeated with enzyme or glyphosate concentrations adjusted as needed to generate sufficient signal within the limits for linear initial rates.

[3] = biological target: T2, Zea mays EPSPS variant Zm-T103A (Zea mays, UniProt O24566, T102A); experiment: Rapid two-rate method for (kcat/KM)*KI, Zm-T103A; format: biochemical; settings: [E] 0.07 uM, [Gly] 1000 uM
T2 construct: native maize plus T103A; E. coli BL21(DE3), Ni-NTA purified
T2 sequence (O24566 with tags, fused parts or gaps T102A): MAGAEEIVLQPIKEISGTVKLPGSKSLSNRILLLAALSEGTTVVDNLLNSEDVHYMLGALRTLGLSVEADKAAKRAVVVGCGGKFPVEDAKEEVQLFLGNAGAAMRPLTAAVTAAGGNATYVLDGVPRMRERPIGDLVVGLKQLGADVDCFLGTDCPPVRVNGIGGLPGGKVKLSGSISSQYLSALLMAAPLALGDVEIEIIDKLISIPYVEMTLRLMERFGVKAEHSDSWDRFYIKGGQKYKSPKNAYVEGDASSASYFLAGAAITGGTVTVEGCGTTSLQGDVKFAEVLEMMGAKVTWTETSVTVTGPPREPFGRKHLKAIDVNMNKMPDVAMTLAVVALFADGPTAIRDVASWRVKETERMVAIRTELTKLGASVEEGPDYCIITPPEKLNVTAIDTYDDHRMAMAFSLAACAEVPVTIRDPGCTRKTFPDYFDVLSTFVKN
From the text: as §1, §2

[4] = biological target: T3, Zea mays EPSPS variant Zm-H6 (868-H6) (Zea mays, UniProt O24566, A1R/A3W/A415G/A71Q/D401G/E301S/E390G/G101A/I207L/K83R/L97C/T278A/T360S/T440Q/V437R); experiment: Rapid two-rate method for (kcat/KM)*KI, Zm-H6; format: biochemical; settings: [E] 0.07 uM, [Gly] 1000 uM
T3 sequence (O24566 with tags, fused parts or gaps A1R/A3W/A71Q/K83R/L97C/G101A/I207L/T278A/E301S/T360S/E390G/D401G/A415G/V437R/T440Q): T1 sequence (O24566 with tags, fused parts or gaps A1R/A3W/A71Q/K83R/L97C/G101A/D195V/I207L/T278A/E301S/T360S/E390G/D401G/A415G/V437R/T440Q) with V196D
From the text: In the Michaelis-Menten equation for steady state reaction velocity with competitive inhibition, the term (kcat/KM)*KI cannot be isolated due to the KM and [S] terms in the denominator. However, if two rate measurements are made at different inhibitor concentrations, those terms can be eliminated by subtraction and (kcat/KM)*KI isolated, as follows:
[formula] where v0 and v1 are initial velocities without and with inhibitor but at the same substrate and enzyme concentrations. Although Equations 2 and 3 are equally valid, to generate the data in Table 1, rate measurement was performed with and without inhibitor using Equation 3. Source of Reagents, Enzyme and Variants
EPSPS activity was determined by quantifying the phosphate generated by the reaction. Release of phosphate was coupled to reaction with MESG, catalyzed by purine-nucleoside phosphorylase, using standard methods. The absorbance change that occurs was monitored continuously at 360 nm, where the extinction is 11,200 M-1 cm-1, with a Spectramax plate reader (Molecular Devices). […] The enzyme concentration was adjusted so as to generate sufficient signal without exceeding the limit for linear initial reaction rates. […]
There are several practical considerations for accurately estimating (kcat/KM)*KI with the rapid method. […] Conditions can be set so that variants with a pre-determined minimal fitness level are accurately quantified. […]

Row | Compound | kcat relative to native kcat [1] [%] | (kcat/KM)*KI [2] | (kcat/KM)*KI [3] | (kcat/KM)*KI [4]
1 | C=C(OP(=O)(O)O)C(=O)O [PEP, phosphoenolpyruvate] | ~5 |  |  | 
2 | O=C(O)CNCP(=O)(O)O [glyphosate, N-phosphonomethylglycine] |  | 1704 | 543 | 4013

— patent US11549123B2, “Plant EPSP synthases and methods of use” (PIONEER HI-BRED INTERNATIONAL, INC., priority 2015, dated 2023)
